# Experimental data taken from US20200113902A1, “COMPOSITIONS AND METHODS FOR TREATING CANCERS WITH COVALENT INHIBITORS OF CYCLIN-DEPENDENT KINASE 7 (CDK7)” (Syros Pharmaceuticals, Inc., priority 2017, published 2020).
# Columns and labels:
# [1] = tested on: MCL1 protein in CAL-120 cells; experiment: Western blot of BCL2 family proteins, CAL-120; assay type: cell-based, human; conditions: 50 nM or 100 nM, 24 hours
# Protocol: Cytotoxic cancer cell lines HCC70 and TOV21G, and cytostatic cancer cell lines T47D and COV318 were seeded in wells of a six-well dish at a density of 1×10^6 cells/well and allowed to adhere overnight. Cells were then treated with 50 nM of Compound 1 for 16 or 24 hours, or with DMSO (0 hours) representing a negative control. Cells were harvested and placed on ice, and resuspended in RIPA lysis buffer supplemented with protease and phosphatase inhibitors. Clarified lysates prepared with 4×LSD running buffer and boiled at 95° C. for 5 minutes. Equivalent amounts of sample (10 μg total protein) were run on a 4-12% Bis-Tris gel and transferred to a PDVF membrane for Western blotting using standard Western blotting protocols. Membranes were blocked with Licor TBS blocking buffer then probed with antibodies for BCL-XL, BCL-2, MCL1, BID, and GAPDH visualized using and Odyssey imager (FIGS. 23A and 23D).
# In a similar experiment, TNBC breast cancer cell lines HCC70, MDAMB468, MDAMB453 and CAL-120 were grown as described above and treated with DMSO, 50 nM Compound 1 or 100 nM Compound 1 for 24 hours. Protein samples were prepared as described above for Western blotting using antibodies specific for the indicated proteins in FIG. 29A. […]
# [2] = tested on: gene expression in HCC70 cells; experiment: Gene expression profiling via RNA-seq (DESeq2, linear model), HCC70; assay type: cell-based; conditions: four hours, JQ1 125 nM, Compound 1 25 nM
# Protocol: In addition, we compared the ability of JQ1 alone, Compound 1 alone, and a combination of JQ1 and Compound 1 to modify expression of various genes in two breast cancer cell lines. Two triple-negative breast cancer cell lines (HCC70 and MDA-MB468) were tested. The cell lines were treated with JQ1, Compound 1, the JQ1/Compound 1 combination, or DMSO for four hours, after which gene expression profiling via RNA-seq was performed. JQ1 was administered to the cells at a 125 nM final concentration in both single agent and combination experiments. Compound 1 was administered to the cells at a 25 nM final concentration in both single agent and combination experiments. Each experiment was performed in triplicate. One replicate of MDA-MB-468 treated with single-agent JQ1 was excluded from further analysis due to quality.
# We employed DESeq2 (Love et al., Genome Biology, 15(12):550, 2014) to identify changes in gene expression due to the JQ1, Compound 1, and JQ1-Compound 1 combination treatment compared to the control DMSO condition based on the RNA-seq data. Genes resulting in a p-value below 0.01 and an absolute logFoldChange above 0.5 were considered to be differentially expressed. […] The same is true for 1459 of 2414 genes in MDA-MB468.
# To identify the genes whose expression is impacted synergistically by the drug combination, we modeled the effect of each drug treatment on expression using a linear model. The expression of each gene after the combination treatment can be thought of as the combined impact of Compound 1, JQ1, and any synergistic interaction between the drug treatments on baseline gene expression. A linear model used to describe this relationship could therefore be represented as:
# Gene Expression after combination treatment=Baseline Expression+Compound 1 effect+JQ1 effect+Combination effect (Synergistic Impact)
# By fitting the expression data for each gene using this model, we were able to evaluate the effect of each treatment, and identify cases where a synergistic interaction between Compound 1 and JQ1 impacts final gene expression. After fitting the linear model to each gene, the weight and p-value of each term can be evaluated. The combination term's weight signifies the mean change resulting from a synergetic impact on expression, with a negative weight indicating synergistic downregulation. Its associated p-value represents the probability that the combination term is not relevant to final gene expression. Using this approach, we identified 1806 genes in HCC70 and 2205 genes in MDA-MB468 whose expression change in the combination treatment was synergistic and whose associated p-value was less than a threshold cutoff of 0.01. The expression of these synergistic genes could not be explained by an additive effect of Compound 1 and JQ1 alone.
# [3] = tested on: HCC70 cells; experiment: Growth rate (GR) inhibition, Cell Titer Glo 2.0, HCC70; assay type: cell-based, human; conditions: concentrations greater than 100 nM, 72 hours
# Protocol: To determine the effect of Compound 1 on the growth of TNBC cancer cells, four different human TNBC cell lines were used—HCC70, MDA-MB-468, MDA-MB-453 and CAL120. Cells from each cell line were plated separately at 50,000 cells/mL (100 uL per well) in a black-walled 96 well plate and allowed to adhere overnight. In parallel, cells were plated in a separate day 0 plate to measure the number of cells present upon compound addition. The next day, Compound 1 was added to the wells with an HP 300e compound dispenser in a 10-point serial dilution and cells incubated for 72 hours. On the same day Cell Titer Glo 2.0 reagent was added to the day 0 plate, and the luminescence measured with an Envision plate reader per manufacture protocol. After 72 hours Cell Titer Glo 2.0 reagent was added to the plates and the luminescence measured. GR curves were calculated as follows: […]
# wherein x(c) is the Compound 1 treatment luminescence); x0 is the average Day 0 luminescence); and xctrl is the average DMSO treatment luminescence, and graphed using Graph Pad Prism. A GR value of 1 indicates no growth inhibition; GR values between 0 and 1 indicate partial growth inhibition; a GR value of 0 indicates cytostasis (no change from baseline); GR values less than 0 indicate cytotoxicity (cell number less than baseline); a GR value of −1 indicates complete cell loss.
# [4] = tested on: HR^+ breast cancer cells; experiment: Inhibition of HR^+ breast cancer cells in vitro (data not shown); assay type: cell-based; conditions: including cells with acquired resistance to aromatase inhibitors and cells no longer responding to CDK4/6 inhibitors
# [5] = tested on: AML xenografts; conditions: previously shown; cited from earlier work
smiles,measurement,setting,value
"CN(C)C/C=C/C(=O)Nc1ccc(C(=O)N[C@@]2(C)CCC[C@@H](Nc3ncc(Cl)c(-c4c[nH]c5ccccc45)n3)C2)nc1 [Compound 1, N-((1S,3R)-3-(5-chloro-4-(1H-indol-3-yl)pyrimidin-2-ylamino)-1-methylcyclohexyl)-5-((E)-4-(dimethylamino)but-2-enamido)picolinamide]",MCL1 protein level (Western blot),[1],downregulated
same,Average Expression (TPM) GATA3,[2]; DMSO 32.685,22.404 TPM
same,Average Expression (TPM) FOXC1,[2]; DMSO 40.481,25.768 TPM
same,Average Expression (TPM) TGIF1,[2]; DMSO 62.523,68.293 TPM
same,Inhibition of growth (GR curve),[3],almost complete inhibition of growth
same,Inhibition of HR^+ breast cancer cells in vitro,[4],inhibits many HR^+ breast cancer cells in vitro
same,Anti-tumor activity,[5],anti-tumor activity
